The record followed here is US8012979B2, “Compounds and their uses 707” (AstraZeneca AB, priority 2007, dated 2011).

Molecules are shown by their SMILES.

The target in this test is T1, human active recombinant p38α-6His tagged (Homo sapiens, UniProt Q16539).
T1 construct: 6His
T1 sequence (Q16539 whole entry): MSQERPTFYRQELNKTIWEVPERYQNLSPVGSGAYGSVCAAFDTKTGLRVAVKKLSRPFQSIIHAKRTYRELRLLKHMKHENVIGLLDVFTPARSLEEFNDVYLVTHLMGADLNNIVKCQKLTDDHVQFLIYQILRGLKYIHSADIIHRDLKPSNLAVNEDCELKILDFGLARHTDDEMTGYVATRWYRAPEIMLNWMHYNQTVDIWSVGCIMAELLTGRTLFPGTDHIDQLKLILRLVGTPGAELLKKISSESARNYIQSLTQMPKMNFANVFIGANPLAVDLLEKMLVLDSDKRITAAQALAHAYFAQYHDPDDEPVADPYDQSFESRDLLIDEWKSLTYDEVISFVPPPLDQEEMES
As to the kind of experiment: p38 Alpha Enzyme Assay (AlphaScreen, biotinylated-ATF2 substrate). In kind it is biochemical. The settings on record: pre-incubated 4 hours at 37° C., reaction initiated with ATP; 0.5 nM enzyme; read-out: p38 pIC50 (converted). For orientation: In Alpha technology, singlet oxygen from a donor bead excites a nearby acceptor bead.
On to `CN[C@@H]1CCN(Cc2cn(CC3CC3)c(=O)c3ccc(-c4cc(C(=O)NC5CC5)cc(F)c4C)cc23)C1` [Example 106, (R)—N-Cyclopropyl-3-(2-(cyclopropylmethyl)-4-((3-(methylamino)pyrrolidin-1-yl)methyl)-1-oxo-1,2-dihydroisoquinolin-6-yl)-5-fluoro-4-methylbenzamide], for which the IC50 is 0.316 nM.

As for `Cc1c(F)cc(C(=O)NC2CC2)cc1-c1ccc2c(=O)n(CC3CC3)cc(CN3CCN[C@H](C)C3)c2c1` [Example 107, (R)—N-Cyclopropyl-3-(2-(cyclopropylmethyl)-4-((3-methylpiperazin-1-yl)methyl)-1-oxo-1,2-dihydroisoquinolin-6-yl)-5-fluoro-4-methylbenzamide], the IC50 was 0.794 nM.

Regarding `Cc1c(F)cc(C(=O)NC2CC2)cc1-c1ccc2c(=O)n(CC3CC3)cc(CN3CCNC[C@H]3CO)c2c1` [Example 108, (S)—N-Cyclopropyl-3-(2-(cyclopropylmethyl)-4-((2-(hydroxymethyl)piperazin-1-yl)methyl)-1-oxo-1,2-dihydroisoquinolin-6-yl)-5-fluoro-4-methylbenzamide], the IC50 was 0.0631 nM.

As for `Cc1c(F)cc(C(=O)NC2CC2)cc1-c1ccc2c(=O)n(CC3CC3)cc(CN3CC[C@@H](N)C3)c2c1` [Example 109, (R)-3-(4-((3-Aminopyrrolidin-1-yl)methyl)-2-(cyclopropylmethyl)-1-oxo-1,2-dihydroisoquinolin-6-yl)-N-cyclopropyl-5-fluoro-4-methylbenzamide], the IC50 was 1.58 nM.

`Cc1c(F)cc(C(=O)NC2CC2)cc1-c1ccc2c(=O)n(CC3CC3)cc(CN[C@@H]3CCNC3)c2c1` [Example 110, (R)—N-Cyclopropyl-3-(2-(cyclopropylmethyl)-1-oxo-4-((pyrrolidin-3-ylamino)methyl)-1,2-dihydroisoquinolin-6-yl)-5-fluoro-4-methylbenzamide]: the IC50 was 1 nM.

As for `Cc1c(F)cc(C(=O)NC2CC2)cc1-c1ccc2c(=O)n(CC3CC3)cc(CN3C[C@@H]4C[C@H]3CN4)c2c1` [Example 111, 3-(4-((1S,4S)-2,5-Diazabicyclo[2.2.1]heptan-2-ylmethyl)-2-(cyclopropylmethyl)-1-oxo-1,2-dihydroisoquinolin-6-yl)-N-cyclopropyl-5-fluoro-4-methylbenzamide], the IC50 is 0.1 nM.

On to `Cc1c(F)cc(C(=O)NC2CC2)cc1-c1ccc2c(=O)n(Cc3ccc(S(C)(=O)=O)cc3)cc(CN3CCN(C)CC3)c2c1` [Example 112, N-Cyclopropyl-3-fluoro-4-methyl-5-(4-((4-methylpiperazin-1-yl)methyl)-2-(4-(methylsulfonyl)benzyl)-1-oxo-1,2-dihydroisoquinolin-6-yl)benzamide], for which the IC50 is 0.126 nM.

With `Cc1c(F)cc(C(=O)NC2CC2)cc1-c1ccc2c(=O)n(Cc3ccc(S(C)(=O)=O)cc3)cc(CN3CCN[C@@H](CO)C3)c2c1` [Example 113, (R)—N-Cyclopropyl-3-fluoro-5-(4-((3-(hydroxymethyl)piperazin-1-yl)methyl)-2-(4-(methylsulfonyl)benzyl)-1-oxo-1,2-dihydroisoquinolin-6-yl)-4-methylbenzamide], the IC50 was 0.0794 nM.

For the compound `Cc1ccc(C(=O)NC2CC2)cc1-c1ccc2c(=O)n(Cc3ccc(C(=O)NS(C)(=O)=O)cc3)cc(CN3CCCN(C)CC3)c2c1` [Example 114, N-Cyclopropyl-4-methyl-3-(4-((4-methyl-1,4-diazepan-1-yl)methyl)-2-(4-(methylsulfonylcarbamoyl)benzyl)-1-oxo-1,2-dihydroisoquinolin-6-yl)benzamide], the IC50 was 0.251 nM.

For `Cc1c(F)cc(C(=O)NC2CC2)cc1-c1ccc2c(=O)n(Cc3ccc(S(C)(=O)=O)cc3)cc(CN3CCN(C)[C@@H](CO)C3)c2c1` [Example 115], the IC50 is 0.1 nM.

For `CC[C@H]1CN(Cc2cn(CC3CC3)c(=O)c3ccc(-c4cc(C(=O)NC5CC5)cc(F)c4C)cc23)CCN1` [Example 116, (S)—N-Cyclopropyl-3-(2-(cyclopropylmethyl)-4-((3-ethylpiperazin-1-yl)methyl)-1-oxo-1,2-dihydroisoquinolin-6-yl)-5-fluoro-4-methylbenzamide], the IC50 was 0.501 nM.

Take `Cc1c(F)cc(C(=O)NC2CC2)cc1-c1ccc2c(=O)n(CC3CC3)cc(CN3CCN[C@@H](CCO)C3)c2c1` [Example 117, (S)—N-Cyclopropyl-3-(2-(cyclopropylmethyl)-4-((3-(2-hydroxyethyl)piperazin-1-yl)methyl)-1-oxo-1,2-dihydroisoquinolin-6-yl)-5-fluoro-4-methylbenzamide]: the IC50 was 0.158 nM.

Regarding `Cc1c(F)cc(C(=O)NC2CC2)cc1-c1ccc2c(=O)n(CC3CC3)cc(CN3CCNC[C@@H]3C)c2c1` [Example 118, (S)—N-Cyclopropyl-3-(2-(cyclopropylmethyl)-4-((2-methylpiperazin-1-yl)methyl)-1-oxo-1,2-dihydroisoquinolin-6-yl)-5-fluoro-4-methylbenzamide], the IC50 is 0.251 nM.

Regarding `Cc1c(F)cc(C(=O)NC2CC2)cc1-c1ccc2c(=O)n(CC3CC3)cc(CN3C[C@@H](N)C[C@@H]3CO)c2c1` [Example 119, 3-(4-(((2R,4S)-4-Amino-2-(hydroxymethyl)pyrrolidin-1-yl)methyl)-2-(cyclopropylmethyl)-1-oxo-1,2-dihydroisoquinolin-6-yl)-N-cyclopropyl-5-fluoro-4-methylbenzamide], the IC50 is 0.398 nM.

Regarding `Cc1c(F)cc(C(=O)NC2CC2)cc1-c1ccc2c(=O)n(CC3CC3)cc(CN3CCC[C@@H]3CN)c2c1` [Example 120, (R)-3-(4-((2-(Aminomethyl)pyrrolidin-1-yl)methyl)-2-(cyclopropylmethyl)-1-oxo-1,2-dihydroisoquinolin-6-yl)-N-cyclopropyl-5-fluoro-4-methylbenzamide], the IC50 was 0.794 nM.

Consider `Cc1ccc(C(=O)NC2CC2)cc1-c1ccc2c(=O)n(C(C)c3ccccc3)ccc2c1` (stereo not drawn) [Example 121, N-Cyclopropyl-4-methyl-3-(1-oxo-2-(1-phenylethyl)-1,2-dihydroisoquinolin-6-yl)benzamide], for which the IC50 is 3.98 nM.

Take `Cc1ccc(C(=O)NC2CC2)cc1-c1ccc2c(=O)n(CC3CC3)ccc2c1` [Example 122, N-Cyclopropyl-3-(2-cyclopropylmethyl-1-oxo-1,2-dihydro-isoquinolin-6-yl)-4-methylbenzamide]: the IC50 is 1.58 nM.

With `CCC(CC)Cn1ccc2cc(-c3cc(C(=O)NC4CC4)ccc3C)ccc2c1=O` [Example 123, N-Cyclopropyl-3-(2-(2-ethylbutyl)-1-oxo-1,2-dihydroisoquinolin-6-yl)-4-methylbenzamide], the IC50 was 3.16 nM.

Regarding `Cc1ccc(C(=O)NC2CC2)cc1-c1ccc2c(=O)n(CC3CCC3)ccc2c1` [Example 124, 3-(2-(Cyclobutylmethyl)-1-oxo-1,2-dihydroisoquinolin-6-yl)-N-cyclopropyl-4-methylbenzamide], the IC50 was 3.98 nM.

For the compound `Cc1ccc(C(=O)NC2CC2)cc1-c1ccc2c(=O)n(CC3CCNCC3)ccc2c1` [Example 125, N-Cyclopropyl-4-methyl-3-(1-oxo-2-piperidin-4-ylmethyl-1,2-dihydro-isoquinolin-6-yl)-benzamide], the IC50 is 63.1 nM.

For `Cc1ccc(C(=O)NC2CC2)cc1-c1ccc2c(=O)n(Cc3ccccn3)ccc2c1` [Example 126, N-Cyclopropyl-4-methyl-3-(1-oxo-2-(pyridin-2-ylmethyl)-1,2-dihydroisoquinolin-6-yl)benzamide], the IC50 is 10 nM.
